From patent EP0324626A1, “1,4-Dihydropyridine derivatives” (priority 1988, dated 1989)

Test: Acute toxicity test (limit test and range finding test), oral administration
Settings: both, ICR, mouse, in vivo
Protocol: The limit test and the range finding test were carried out using the SPF mice, as stated below, and LD₅₀ values were determined.
The dead mice are weighed and organ examinations are carried out for macroscopical lesions. Also, on the last day of the test all surviving mice are sacrificed and used for examinations.
If the mortality is more than 50% in the limit test, the range finding test is carried out for 14 days with three doses groups including the putative LD₅₀ value. The method is same as the foregoing limit test.

Question: With `C=CC(C)OC(=O)C1=C(C)NC(C)=C(C(=O)OCCN(C)Cc2ccccc2)C1c1cccc([N+](=O)[O-])c1` (stereo not drawn) [Example 1, 3-β-(N-benzyl-N-methylamino)ethyl 5-(1-methyl-2-propenyl) 2,6-dimethyl-4-(3′-nitrophenyl)-1,4-dihydropyridine-3,5-dicarboxylate] as the compound, how does the LD50 at 14 days read?
Answer: The LD50 at 14 days was > 1000 mg/kg.

Question: For `C=CC(C)OC(=O)C1=C(C)NC(C)=C(C(=O)OCCOC)C1c1cccc([N+](=O)[O-])c1` (stereo not drawn) [Example 3, 3-(1-methyl-2-propenyl) 5-(2-methoxyethyl) 2,6-dimethyl-4-(3′-nitrophenyl)-1,4-dihydropyridine-3,5-dicarboxylate], which LD50 at 14 days is on record?
Answer: Its LD50 at 14 days is > 5000 mg/kg.

Question: With `C=C(C)COC(=O)C1=C(C)NC(C)=C(C(=O)OCCN(C)Cc2ccccc2)C1c1cccc([N+](=O)[O-])c1` (stereo not drawn) [Example 8, 3-β-(N-benzyl-N-methylamino)ethyl 5-(2-methyl-2-propenyl) 2,6-dimethyl-4-(3′-nitrophenyl)-1,4-dihydropyridine-3,5-dicarboxylate] as the compound, how does the LD50 at 14 days read?
Answer: Its LD50 at 14 days is > 1000 mg/kg.

Question: For `C=C(C)COC(=O)C1=C(C)NC(C)=C(C(=O)OC)C1c1cccc([N+](=O)[O-])c1` (stereo not drawn) [Example 12, 3-methyl 5-(2-methyl-2-propenyl) 2,6-dimethyl-4-(3′-nitrophenyl)-1,4-dihydropyridine-3,5-dicarboxylate], which LD50 at 14 days is on record?
Answer: Its LD50 at 14 days is 1000 mg/kg.

Question: Which LD50 at 14 days does the source give for `C=CCOC(=O)C1=C(C)NC(C)=C(C(=O)OCC(=C)C)C1c1cccc([N+](=O)[O-])c1` (stereo not drawn) [Example 13, 3-(2-methyl-2-propenyl) 5-allyl 2,6-dimethyl-4-(3′-nitrophenyl)-1,4-dihydropyridine-3,5-dicarboxylate] here?
Answer: Its LD50 at 14 days is > 5000 mg/kg.

Question: For `COC(=O)C1=C(C)NC(C)=C(C(=O)OCCN(C)Cc2ccccc2)C1c1cccc([N+](=O)[O-])c1` (stereo not drawn) [Nicardipine, reference compound], which LD50 at 14 days is on record?
Answer: The LD50 at 14 days was < 700 mg/kg.
